Measured values from US20250109104A1, “SQUARAINE FLUOROPHORES” (The General Hospital Corporation, priority 2022, published 2025).

Key:
cancer = settings: in vivo; cited from earlier work
tumors = test: Intraoperative NIR imaging for fluorescence guided surgery (FGS) in tumor-bearing mice; assay type: in vivo
Description: FIG. 5 depicts intraoperative imaging of OCTL14 for fluorescence guided surgery (FGS). (a) FGS using the squaraine. Tumor-bearing mice were intravenously injected with 100 nmol of OCTL14. FGS was performed 6 h post-injection. The yellow circle indicates the lesions for which intraoperative image-guided surgeries were performed. The middle panels show the tumor locations before/after surgery and resected tumors of different sizes. Scale bars=1 cm. (b) Clinical impact of the use of OCTL14. The number of tumors detected using color images only was compared to those detected using NIR imaging by experienced surgeons.
Structure-inherent targeting: Squaraines are selectively taken up by cancer cells via organic cation transporters (OCTs), overexpressed by cancer cells (FIG. 4). This high affinity is mediated by the unique structure of the molecule. This was achieved this by introducing an asymmetric molecular conformation and surface charges. In this way, squaraines can be up-taken rapidly via transporter and selectively accumulate in cancer cells, not normal cells. In addition, we have shown that once they are taken up by cancer cells, squaraines can stay in lysosomes for hours for durable imaging. This feature is critical to have a clear contrast between cancerous and normal tissue for clear cancer imaging during surgery or medical procedures.

## CC1(C)C(/C=C/C=C/C=C/C=C2\N(CCCCS(=O)(=O)O)c3ccc4ccccc4c3C2(C)C)=[N+](CCCCS(=O)(=O)[O-])c2ccc3ccccc3c21 [ICG, indocyanine green]
cancer
  blood half-life: short blood half-life
  cancer targeting capability: no specific cancer targeting capability

## Br.C[N+]1=C(/C=C2\C(=O)C(/C=C3/N(CCC[N+](C)(C)C)c4ccc(F)cc4C3(C)C)=C2[O-])C(C)(C)c2ccccc21.[I-] [OCTL14, Mono ((Z)-2-((E)-(5-fluoro-3,3-dimethyl-1-(3-(trimethylammonio)propyl)indolin-2-ylidene)methyl)-3-oxo-4-((1,3,3-trimethyl-3H-indol-1-ium-2-yl)methylene)cyclobut-1-enolate) mono bromide monoiodide]
tumors; 6 h post-injection, 100 nmol intravenously, tumor-bearing mice
  localization of cancer tissues: precise localization of cancer tissues
tumors; FGS 6 h post-injection
  resection of tumors under image guidance: complete resection of tumors
  residual tumor after FGS: no residual tumor
